Assay results reported in patent publication US8633134B2, “Substituted amidine compounds for combating animal pests” (priority 2008, dated 2014).

What was measured:
Assay type in all cases: in vivo
[1] = system: Cotton Aphid (Aphis gossypii); assay: Cotton aphid foliar spray test; details: 120 h, after 5 days, in comparison with untreated controls
Source text: (§1) The active compounds were formulated in cyclohexanone as a 10,000 ppm solution supplied in tubes. The tubes were inserted into an automated electrostatic sprayer equipped with an atomizing nozzle and they served as stock solutions for which lower dilutions were made in 50% acetone:50% water (v/v). A nonionic surfactant (Kinetic®) was included in the solution at a volume of 0.01% (v/v).
Cotton plants at the cotyledon stage were infested with aphids prior to treatment by placing a heavily infested leaf from the main aphid colony on top of each cotyledon. Aphids were allowed to transfer overnight to accomplish an infestation of 80-100 aphids per plant and the host leaf was removed. The infested plants were then sprayed by an automated electrostatic plant sprayer equipped with an atomizing spray nozzle. The plants were dried in the sprayer fume hood, removed from the sprayer, and then maintained in a growth room under fluorescent lighting in a 24-hr photoperiod at 25° C. and 20-40% relative humidity. Aphid mortality on the treated plants, relative to mortality on untreated control plants, was determined after 5 days.

[2] = system: Diamond Back Moth (Plutella xylostella); assay: Diamond back moth leaf dip test; details: foliar, 120 h
Experimental: (§2) The active compound is dissolved at the desired concentration in a mixture of 1:1 (vol:vol) distilled water:acteon. The test solution is prepared at the day of use and in general at concentrations of […].
Leaves of Chinese cabbage were dipped in test solution and air-dried. Treated leaves were placed in petri dished lined with moist filter paper. Mortality was recorded 24, 72, and 120 hours after treatment.

[3] = system: Mediterranean Fruitfly (Ceratitis capitata); assay: Mediterranean fruitfly microtiter plate diet test; details: 120 h
Experimental: For evaluating control of Mediterranean fruitfly (Ceratitis capitata) the test unit consisted of microtiter plates containing an insect diet and 50-80 C. capitata eggs. The compounds were formulated using a solution containing 75% v/v water and 25% v/v DMSO. Different concentrations of formulated compounds were sprayed onto the insect diet at 5 μl, using a custom built micro atomizer, at two replications.
After application, microtiter plates were incubated at about 28±1° C. and about 80±5% relative humidity for 5 days. Egg and larval mortality was then visually assessed.

[4] = system: Orchid Thrips (Dichromothrips corbetti); assay: Orchid thrips floral-immersion test; details: 96 h
Experimental: Dichromothrips corbetti adults used for bioassay are obtained from a colony maintained continuously under laboratory conditions. For testing purposes, the test compound is diluted to a concentration of 300 ppm (wt compound: vol diluent) in a 1:1 mixture of acetone:water (vol:vol), plus 0.01% vol/vol Kinetic® surfactant.
Thrips potency of each compound is evaluated by using a floral-immersion technique. Plastic petri dishes are used as test arenas. All petals of individual, intact orchid flowers are dipped into treatment solution and allowed to dry. Treated flowers are placed into individual petri dishes along with 10-15 adult thrips. The petri dishes are then covered with lids. All test arenas are held under continuous light and a temperature of about 28° C. for duration of the assay. After 4 days, the numbers of live thrips are counted on each flower, and along inner walls of each petri dish. The level of thrips mortality is extrapolated from pre-treatment thrips numbers.

[5] = system: Silverleaf Whitefly (Bemisia argentifolii); assay: Silverleaf whitefly cotton plant spray test; details: 72 h, 3 days after treatment, in comparison with untreated controls
Source text: as §1
Cotton plants at the cotyledon stage (one plant per pot) were sprayed by an automated electrostatic plant sprayer equipped with an atomizing spray nozzle. The plants were dried in the sprayer fume hood and then removed from the sprayer. Each pot was placed into a plastic cup and about 10 to 12 whitefly adults (approximately 3-5 days old) were introduced. The insects were collected using an aspirator and a nontoxic Tygon® tubing connected to a barrier pipette tip. The tip, containing the collected insects, was then gently inserted into the soil containing the treated plant, allowing insects to crawl out of the tip to reach the foliage for feeding. Cups were covered with a reusable screened lid. Test plants were maintained in a growth room at about 25° C. and about 20-40% relative humidity for 3 days, avoiding direct exposure to fluorescent light (24 hour photoperiod) to prevent trapping of heat inside the cup. Mortality was assessed 3 days after treatment, compared to untreated control plants.

[6] = system: Southern Armyworm (Spodoptera eridania); assay: Southern armyworm lima bean foliar spray test; details: 96 h
Experimental: as §1
(§3) Lima bean plants (variety Sieva) were grown 2 plants to a pot and selected for treatment at the 1st true leaf stage. Test solutions were sprayed onto the foliage by an automated electrostatic plant sprayer equipped with an atomizing spray nozzle. The plants were dried in the sprayer fume hood and then removed from the sprayer. Each pot was placed into perforated plastic bags with a zip closure. About 10 to 11 armyworm larvae were placed into the bag and the bags zipped closed. Test plants were maintained in a growth room at about 25° C. and about 20-40% relative humidity for 4 days, avoiding direct exposure to fluorescent light (24 hour photoperiod) to prevent trapping of heat inside the bags. Mortality and reduced feeding were assessed 4 days after treatment, compared to untreated control plants.

[7] = system: Vetch Aphid (Megoura viciae); assay: Vetch aphid leaf disk microtiter plate test; details: foliar, 120 h
Experimental: For evaluating control of vetch aphid (Megoura viciae) through contact or systemic means the test unit consisted of 24-well-microtiter plates containing broad bean leaf disks.
The compounds were formulated using a solution containing 75% v/v water and 25% v/v DMSO. Different concentrations of formulated compounds were sprayed onto the leaf disks at 2.5 μl, using a custom built micro atomizer, at two replications. After application, the leaf disks were air-dried and 5-8 adult aphids placed on the leaf disks inside the microtiter plate wells. The aphids were then allowed to suck on the treated leaf disks and incubated at about 23±1° C. and about 50±5% relative humidity for 5 days. Aphid mortality and fecundity was then visually assessed.

[8] = system: Tobacco Budworm (Heliothis virescens); assay: Tobacco budworm cotton plant foliar spray test; details: 96 h
Experimental: as §1
as §3, with “Cotton” for “Lima bean”, “plants” for “plants (variety Sieva)”, “cotyledon” for “1st true leaf”, “budworm” for “armyworm”

[9] = system: Boll Weevil (Anthonomus grandis); assay: Boll weevil microtiter plate diet test; details: 120 h
Experimental: For evaluating control of boll weevil (Anthonomus grandis) the test unit consisted of 24-well-microtiter plates containing an insect diet and 20-30 A. grandis eggs.
The compounds were formulated using a solution containing 75% v/v water and 25% v/v DMSO. Different concentrations of formulated compounds were sprayed onto the insect diet at 20 μl, using a custom built micro atomizer, at two replications. After application, microtiter plates were incubated at about 23±1° C. and about 50±5% relative humidity for 5 days. Egg and larval mortality was then visually assessed.

[10] = system: yellowfever mosquito larvae (Aedes aegypti); assay: Larval mosquito water treatment assay; details: 120 h, 5 DAT (days after treatment), first tier test, in comparison with untreated controls
Experimental: The assay was conducted in 6-well polystyrene plates using one plate per treatment rate. Stock solutions were prepared at 100 and 1000 ppm. Screen rates were at 1 and 10 ppm. Distilled water was added to each well, control wells were treated with acetone. Temephos (Abate technical) was used as the standard at 0.1 ppm. Ten late thirdinstar yellowfever mosquito larvae (Aedes aegypti) in water were added to each well. One drop of liver powder solution (6 g in 100 ml distilled water) was added to each well as a food source daily. Plates were maintained at 22-25° C. and 25-50% RH (relative humidity) and observed daily for dead larvae and pupae at 1, 2, 3, and 5 days after treatment. Dead larvae and all pupae were removed daily. Mortality was defined as an insect incapable of coordinated movement when agitated.

[11] = system: Western Flower Thrips (Frankliniella occidentalis); assay: Western flower thrips glass vial / leaf disc test; details: 300 ppm; 2 DAT; in comparison with untreated controls
Experimental: Serial dilutions of each technical grade AI were made in pure acetone. 0.5 ml of the treatment solution was deposited into the bottom of a glass vial (scintillation vial). The cap was screwed back onto the vial and inverted for about five seconds. The cap was subsequently removed and the vial laid on its side and rolled constantly, on a hot dog roller, until all the acetone had flashed off and the inner surface of the vial was dry. Cotton leave discs were also dipped simultaneously into the treatment solutions and allowed to dry. After the vials were dried, the leave discs are placed into the vials to serve as a food/water source for the thrips. Each treatment was replicated 5-fold.
Western flower thrips were aspirated into the vials, approximately 5 larvae or adults/vial. Following treatment application the vials were held in a holding room under fluorescent light and constant 26° C. Thrips mortality was assessed at 2 DAT (days after treatment), counting all thrips both dead and alive.

[12] = system: Cowpea Aphid (Aphis craccivora); assay: Cowpea aphid spray test on potted cowpea plants; details: population reduction assessed after 24, 72, and 120 hours, in comparison with untreated controls
Experimental: as §2
Potted cowpea plants colonized with approximately 100-150 aphids of various stages were sprayed after the pest population has been recorded. Population reduction was assessed after 24, 72, and 120 hours.

SMILES | mortality at 300 ppm [1] [%] | mortality at 300 ppm [2] [%] | mortality at 2500 ppm [3] [%] | mortality at 300 ppm [4] [%] | mortality at 300 ppm [5] [%] | mortality at 300 ppm [6] [%] | mortality at 2500 ppm [7] [%] | mortality at 2500 ppm [8] [%] | mortality at 2500 ppm [9] [%] | mortality at 1 ppm [10] [%] | mortality [11] | mortality at 300 ppm [12] [%]
CN=C(NO)c1ccc(C2=NOC(c3cc(Cl)cc(Cl)c3)(C(F)(F)F)C2)cc1C (stereo not shown) [Compound 1-1, 4-[5-(3,5-Dichloro-phenyl)-5-trifluoromethyl-4,5-dihydro-isoxazol-3-yl]-N-hydroxy-2,N′-dimethyl-benzamidine] | ≥ 75 | ≥ 75 | ≥ 75 | ≥ 75 | ≥ 75 | ≥ 75 | ≥ 75 | ≥ 75 | ≥ 75 | ≥ 75 |  | 
Cc1cc(C2=NOC(c3cc(Cl)cc(Cl)c3)(C(F)(F)F)C2)ccc1C(=NO)N(C)C (stereo not shown) [Compound 1-2] |  |  |  |  |  |  |  |  |  |  | at least 75% | 
Cc1cc(C2=NOC(c3cc(Cl)cc(Cl)c3)(C(F)(F)F)C2)ccc1C(=NCC(F)(F)F)NC(=O)CO (stereo not shown) [Compound 1-7, 4-[5-(3,5-Dichloro-phenyl)-5-trifluoromethyl-4,5-dihydro-isoxazol-3-yl]-N-hydroxyacetyl-2-methyl-N′-(2,2,2-trifluoro-ethyl)-benzamidine] |  | ≥ 75 | ≥ 75 | ≥ 75 |  | ≥ 75 |  | ≥ 75 | ≥ 75 |  |  | 
Cc1cc(C2=NOC(c3cc(Cl)cc(Cl)c3)(C(F)(F)F)C2)ccc1C(=NCc1ccccn1)NO (stereo not shown) [Compound 1-8, 4-[5-(3,5-Dichloro-phenyl)-5-trifluoromethyl-4,5-dihydro-isoxazol-3-yl]-N-hydroxy-2-methyl-N′-pyridin-2-ylmethyl-benzamidine] | ≥ 75 | ≥ 75 | ≥ 75 | ≥ 75 |  | ≥ 75 | ≥ 75 | ≥ 75 | ≥ 75 |  |  | ≥ 75
CC(=O)N(Cc1ccccn1)C(C(=O)C=NO)c1ccc(C2=NOC(c3cc(Cl)cc(Cl)c3)(C(F)(F)F)C2)cc1C (stereo not shown) [Compound 1-10, N-{{4-[5-(3,5-dichloro-phenyl)-5-trifluoromethyl-4,5-dihydro-isoxazol-3-yl]-2-methyl-phenyl}-hydroxyiminoacetyl-methyl}-N-pyridin-2-ylmethyl-acetamide] |  | ≥ 75 | ≥ 75 | ≥ 75 |  | ≥ 75 | ≥ 75 | ≥ 75 | ≥ 75 |  |  | ≥ 75
Cc1nc(-c2ccc(C3=NOC(c4cc(Cl)cc(Cl)c4)(C(F)(F)F)C3)cc2C)no1 (stereo not shown) [Compound 9-2, 3-{4-[5-(3,5-Dichloro-phenyl)-5-trifluoromethyl-4,5-dihydro-isoxazol-3-yl]-2-methyl-phenyl}-5-methyl-[1,2,4]oxadiazole] |  | ≥ 75 | ≥ 75 |  |  | ≥ 75 |  | ≥ 75 | ≥ 75 |  |  | 
Cc1nc(-c2ccc(C3=NOC(c4cc(Cl)cc(Cl)c4)(C(F)(F)F)C3)cc2CC(F)(F)F)no1 (stereo not shown) [Compound 9-4, 3-{4-[5-(3,5-Dichloro-phenyl)-5-trifluoromethyl-4,5-dihydro-isoxazol-3-yl]-2-trifluoroethyl-phenyl}-5-methyl-[1,2,4]oxadiazole] |  |  | ≥ 75 |  |  | ≥ 75 |  | ≥ 75 | ≥ 75 |  |  | 
